Measurements taken from the supplement of paper PMC10307832.

Key:
Assay in all cases: relative viability (nuclei count vs DMSO), 5 days (fraction); higher = more cells survive
[1] = test system: NCI-H441
Procedure, shortened: (§1)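 Each reported value is a median over duplicate plates. It expresses relative viability: treated-well nuclei count divided by vehicle-well nuclei count. Lung cancer cell lines in 1536-well plates were dosed by pin tool a day after seeding, alone with one drug or with a fixed anchor-drug dose plus five library-drug doses (not always all listed) in √10 steps, and nuclei were counted after 5 days.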

[2] = test system: NCI-H1395
Procedure, shortened: as §1

[3] = test system: NCI-H2405
Procedure, shortened: as §1

[4] = test system: NCI-H2228
Procedure, shortened: as §1

[5] = test system: NCI-H2342
Procedure, shortened: as §1

[6] = test system: NCI-H1755
Procedure, shortened: as §1

[7] = test system: HCC-78
Procedure, shortened: as §1

[8] = test system: PC-3 [JPC-3]
Procedure, shortened: as §1

[9] = test system: NCI-H522
Procedure, shortened: as §1

[10] = test system: HCC-827
Procedure, shortened: as §1

[11] = test system: NCI-H2009
Procedure, shortened: as §1

[12] = test system: LCLC-97TM1
Procedure, shortened: as §1

[13] = test system: NCI-H647
Procedure, shortened: as §1

[14] = test system: NCI-H520
Procedure, shortened: as §1

[15] = test system: NCI-H1792
Procedure, shortened: as §1

[16] = test system: ChaGo-K-1
Procedure, shortened: as §1

[17] = test system: NCI-H1355
Procedure, shortened: as §1

[18] = test system: LOU-NH91
Procedure, shortened: as §1

[19] = test system: NCI-H661
Procedure, shortened: as §1

[20] = test system: NCI-H1993
Procedure, shortened: as §1

[21] = test system: SK-MES-1
Procedure, shortened: as §1

[22] = test system: LK-2
Procedure, shortened: as §1

[23] = test system: NCI-H2085
Procedure, shortened: as §1

`Oc1nc(-c2ccc(C(F)(F)F)cc2)nc2c1CSCC2` [XAV939] + CC(=O)c1c(C)c2cnc(Nc3ccc(N4CCNCC4)cn3)nc2n(C2CCCC2)c1=O [Palbociclib] (partner 0.5 µM) was tested, and the relative viability ([1]; first compound 0.08 µM) was 0.222, the relative viability ([1]; first compound 0.253 µM) was 0.189 and the relative viability ([1]; first compound 0.8 µM) was 0.182. For the same compound, the relative viability ([1]; first compound 2.53 µM) was 0.189, the relative viability ([2]; first compound 0.08 µM) was 0.644 and the relative viability ([2]; first compound 0.253 µM) was 0.575. For the same compound, the relative viability ([2]; first compound 0.8 µM) was 0.569, the relative viability ([2]; first compound 2.53 µM) was 0.568 and the relative viability ([3]; first compound 0.08 µM) was 0.554. It also gave a relative viability ([3]; first compound 0.253 µM) of 0.513, a relative viability ([3]; first compound 0.8 µM) of 0.492 and a relative viability ([3]; first compound 2.53 µM) of 0.386. It also gave a relative viability ([4]; first compound 0.08 µM) of 0.971, a relative viability ([4]; first compound 0.253 µM) of 0.613 and a relative viability ([4]; first compound 0.8 µM) of 0.664. It also gave a relative viability ([4]; first compound 2.53 µM) of 0.657, a relative viability ([5]; first compound 0.08 µM) of 0.555 and a relative viability ([5]; first compound 0.253 µM) of 0.464. The relative viability ([5]; first compound 0.8 µM) was 0.468, the relative viability ([5]; first compound 2.53 µM) was 0.467 and the relative viability ([6]; first compound 0.08 µM) was 0.439. The relative viability ([6]; first compound 0.253 µM) was 0.341, the relative viability ([6]; first compound 0.8 µM) was 0.458 and the relative viability ([6]; first compound 2.53 µM) was 0.414. It also gave a relative viability ([7]; first compound 0.08 µM) of 0.479, a relative viability ([7]; first compound 0.253 µM) of 0.382 and a relative viability ([7]; first compound 0.8 µM) of 0.466. The relative viability ([7]; first compound 2.53 µM) was 0.527, the relative viability ([8]; first compound 0.253 µM) was 0.5 and the relative viability ([8]; first compound 0.8 µM) was 0.523. The relative viability ([8]; first compound 2.53 µM) was 0.485, the relative viability ([9]; first compound 0.08 µM) was 1.05 and the relative viability ([9]; first compound 0.253 µM) was 0.884. The relative viability ([9]; first compound 0.8 µM) was 0.973, the relative viability ([9]; first compound 2.53 µM) was 1.03 and the relative viability ([10]; first compound 0.08 µM) was 0.571. The relative viability ([10]; first compound 0.253 µM) was 0.459, the relative viability ([10]; first compound 0.8 µM) was 0.584 and the relative viability ([10]; first compound 2.53 µM) was 0.517. For the same compound, the relative viability ([11]; first compound 0.08 µM) was 0.275, the relative viability ([11]; first compound 0.253 µM) was 0.239 and the relative viability ([11]; first compound 0.8 µM) was 0.188. For the same compound, the relative viability ([11]; first compound 2.53 µM) was 0.317, the relative viability ([12]; first compound 0.08 µM) was 0.237 and the relative viability ([12]; first compound 0.253 µM) was 0.204. It also gave a relative viability ([12]; first compound 2.53 µM) of 0.232, a relative viability ([13]; first compound 0.08 µM) of 0.406 and a relative viability ([13]; first compound 0.253 µM) of 0.298. For the same compound, the relative viability ([13]; first compound 0.8 µM) was 0.277, the relative viability ([13]; first compound 2.53 µM) was 0.293 and the relative viability ([14]; first compound 0.08 µM) was 0.252. For the same compound, the relative viability ([14]; first compound 0.8 µM) was 0.183, the relative viability ([14]; first compound 2.53 µM) was 0.211 and the relative viability ([15]; first compound 0.08 µM) was 0.777. The relative viability ([15]; first compound 0.253 µM) was 0.425, the relative viability ([15]; first compound 0.8 µM) was 0.675 and the relative viability ([15]; first compound 2.53 µM) was 0.558. For the same compound, the relative viability ([16]; first compound 0.08 µM) was 0.99, the relative viability ([16]; first compound 0.253 µM) was 0.925 and the relative viability ([16]; first compound 0.8 µM) was 0.915. The relative viability ([16]; first compound 2.53 µM) was 0.887, the relative viability ([17]; first compound 0.08 µM) was 0.401 and the relative viability ([17]; first compound 0.253 µM) was 0.319. The relative viability ([17]; first compound 0.8 µM) was 0.351, the relative viability ([17]; first compound 2.53 µM) was 0.282 and the relative viability ([18]; first compound 0.08 µM) was 0.609. For the same compound, the relative viability ([18]; first compound 0.253 µM) was 0.54, the relative viability ([18]; first compound 0.8 µM) was 0.54 and the relative viability ([18]; first compound 2.53 µM) was 0.419. It also gave a relative viability ([19]; first compound 0.08 µM) of 0.407, a relative viability ([19]; first compound 0.253 µM) of 0.394 and a relative viability ([19]; first compound 0.8 µM) of 0.409. The relative viability ([19]; first compound 2.53 µM) was 0.388, the relative viability ([20]; first compound 0.08 µM) was 0.617 and the relative viability ([20]; first compound 0.253 µM) was 0.474. The relative viability ([20]; first compound 0.8 µM) was 0.469, the relative viability ([20]; first compound 2.53 µM) was 0.5 and the relative viability ([21]; first compound 0.08 µM) was 0.288. For the same compound, the relative viability ([21]; first compound 0.253 µM) was 0.299, the relative viability ([21]; first compound 0.8 µM) was 0.338 and the relative viability ([21]; first compound 2.53 µM) was 0.297. It also gave a relative viability ([22]; first compound 0.08 µM) of 0.526, a relative viability ([22]; first compound 0.253 µM) of 0.626 and a relative viability ([22]; first compound 0.8 µM) of 0.609. For the same compound, the relative viability ([22]; first compound 2.53 µM) was 0.545, the relative viability ([23]; first compound 0.08 µM) was 0.489 and the relative viability ([23]; first compound 0.253 µM) was 0.435. It also gave a relative viability ([23]; first compound 0.8 µM) of 0.491 and a relative viability ([23]; first compound 2.53 µM) of 0.451.
